Experimental findings from patent publication US9255078B2, “Micheliolide derivatives, medicinal composition, producing method and usage thereof” (ACCENDATECH, priority 2010, dated 2016) are described below.

The pIC50 is the IC50 on a negative log10 scale, so that one unit is a factor of ten.

Holding throughout (type): cell-based
Common to all, as to settings: incubated 18 hours, read-out: inhibitory activity against different cancer cells (IC50)

The test system of one test is A549. The experiment in a line: MTT assay, A549 lung cancer cell lines. How it is done:
(§1) A variety of cancer cells are suspended to 2×10^5/mL, and then added into 24-hole Round-bottomed tissue culture plate. After that micheliolide and its derivatives are added, herein a test with one density occupies 5 holes. The resulting suspension are incubated (under 37° C., 5% CO2) for 18 hours to allow the compounds to take effect. A absorbance (A) value is measured by using the method of MTT assay and an enzyme-linked detector under 570 nm wavelength, and then the inhibitory activity of the compounds is concluded.
(§2) In Table 1, HL-60, K562, MCF-7, CNE-1, CNE-2, SW620, A549, HepG2, Ec9706, SGC7901, SW1116, A498, ASPC-1, HT-29, HeLa, GL15, B16F1, T24, SKOV3, SW579, PC-3, represents acute leukemia cell lines, Chronic leukemia cell lines, Breast cancer cell lines, High differentiation nasopharyngeal carcinoma cell line, Poorly differentiated nasopharyngeal carcinoma cell lines, Colorectal cancer cell line, Lung cancer cell lines, Hepatocellular carcinoma cell lines, Esophageal cancer cell line, Gastric cancer cell line, Colon cancer cell line, Renal cell carcinoma cell line, Pancreatic cancer cell line, Colon cancer cell lines, uterine cervical cancer cell lines, Horny man neuroblastoma cell lines, Melanoma cell line, human bladder cancer cell line, ovarian cancer cell lines, thyroid cancer cells, prostate cancer cell lines, respectively.

In a further test the test system is SW579. The experiment in a line: MTT assay, SW579 thyroid cancer cells. How it is done:
as §1, §2
Background: Tetrazolium assays rely on reduction of a dye to a coloured formazan, in cell work by metabolically active cells.

For a further test, the system named is CNE-1. The experiment in a line: MTT assay, CNE-1 high differentiation nasopharyngeal carcinoma cell line. As to the method:
as §1, §2

In a further test the test system is CNE-2. The experiment in a line: MTT assay, CNE-2 poorly differentiated nasopharyngeal carcinoma cell lines. How it is done:
as §1, §2

Another test has as its system SGC7901. The experiment in a line: MTT assay, SGC7901 gastric cancer cell line. As to the method: as §1, §2
A further test concerns MCF-7. Briefly: MTT assay, MCF-7 breast cancer cell lines. How it is done:
as §1, §2

A further test deals with HeLa. The experiment in a line: MTT assay, HeLa uterine cervical cancer cell lines. How it is done:
as §1, §2

The next test relates to A498. Briefly: MTT assay, A498 renal cell carcinoma cell line. As to the method: as §1, §2
A further test relates to SW1116. Briefly: MTT assay, SW1116 colon cancer cell line. As to the method: as §1, §2
In the next test the test system is T24. Briefly: MTT assay, T24 human bladder cancer cell line. As to the method: as §1, §2
A further test has as its system HL-60. The experiment in a line: MTT assay, HL-60 acute leukemia cell lines. As to the method: as §1, §2
The test system of another test is PC-3. The experiment in a line: MTT assay, PC-3 prostate cancer cell lines. How it is done: as §1, §2
The test system of a further test is GL15. Briefly: MTT assay, GL15 neuroblastoma cell lines. How it is done:
as §1, §2

In a further test the test system is SW620. Briefly: MTT assay, SW620 colorectal cancer cell line. As to the method: as §1, §2
The next test has as its system ASPC-1. Briefly: MTT assay, ASPC-1 pancreatic cancer cell line. As to the method:
as §1, §2

A further test deals with K562. The experiment in a line: MTT assay, K562 chronic leukemia cell lines. How it is done: as §1, §2
For another test, the system named is Ec9706. The experiment in a line: MTT assay, Ec9706 esophageal cancer cell line. How it is done:
as §1, §2

A further test concerns HepG-2. Briefly: MTT assay, HepG-2 hepatocellular carcinoma cell lines. How it is done:
as §1, §2

The next test concerns B16F1. The experiment in a line: MTT assay, B16F1 melanoma cell line. How it is done: as §1, §2
Another test has as its system SKOV3. The experiment in a line: MTT assay, SKOV3 ovarian cancer cell lines. As to the method: as §1, §2
Another test relates to HT-29. Briefly: MTT assay, HT-29 colon cancer cell lines. How it is done:
as §1, §2

pIC50: −log10 of the molar value. Counter-ions that a name gives are not always drawn. Like-named read-outs stand apart in the source and are kept apart here.

As for `C=C1C(=O)O[C@H]2[C@H]1CCC(C)=C1CC[C@@](C)(OC(=O)CC)[C@@H]12` [Compound III, 4-propionylmicheliolide], the pIC50 in the test with A549 (Homo sapiens, A549, 18 h) is 8.11; in the test with SW579 (SW579, 18 h), 7.65; with CNE-1 (18 h) it was 8.23; in the test with CNE-2 (Homo sapiens, CNE-2, 18 h) it was 7.91; in the test on SGC7901 (Homo sapiens, SGC-7901, 18 h), 7.83; in the test with MCF-7 (Homo sapiens, MCF7, 18 h), 8.47. Further, the pIC50 with HeLa (Homo sapiens, 18 h) is 7.76; in the test on A498 (Homo sapiens, A498, 18 h) it was 8.28; in the test with SW1116 (Homo sapiens, SW 1116, 18 h), 7.67; in the test with T24 (Homo sapiens, T-24, 18 h), 7.87; with HL-60 (Homo sapiens, HL-60, 18 h), 8.35; with PC-3 (Homo sapiens, PC-3, 18 h), 7.94. Also, the pIC50 with GL15 (Neuroblastoma cell, 18 h) was 7.84; with SW620 (Homo sapiens, SW-620, 18 h), 8.25; with ASPC-1 (Homo sapiens, ASPC1, 18 h), 7.82; with K562 (Homo sapiens, K562, 18 h) it was 8.17; in the test with Ec9706 (Homo sapiens, EC9706, 18 h), 8.12; with HepG-2 (Homo sapiens, HepG2, 18 h) it was 7.81. For the same compound, the pIC50 was 7.88 with B16F1 (Mus musculus, B16-F1, 18 h); 8.03 in the test with SKOV3 (Homo sapiens, SK-OV-3, 18 h); 8.01 in the test with HT-29 (Homo sapiens, HT-29, 18 h).
Consider `CC1=C2CC[C@@](C)(O)[C@@H]2[C@H]2OC(=O)[C@@H](CN(C)C)[C@@H]2CC1` [Compound V, 11βH,13-Dihydro, 13-dimethylaminomicheliolide hydrochloride], for which the pIC50 is 7.74 in the test with A549 (hydrochloride); 7.49 with SW579 (hydrochloride); 7.65 in the test with CNE-1 (hydrochloride); 7.77 with CNE-2 (hydrochloride); 7.60 in the test on SGC7901 (hydrochloride); 7.57 in the test on MCF-7 (hydrochloride). The pIC50 was 7.48 in the test on HeLa (hydrochloride); 7.79 in the test with A498 (hydrochloride); 7.51 in the test with SW1116 (hydrochloride); 7.65 in the test on T24 (hydrochloride); 7.94 in the test on HL-60 (hydrochloride); 7.63 with PC-3 (hydrochloride). Besides, the pIC50 in the test on GL15 (hydrochloride) was 7.59; in the test on SW620 (hydrochloride), 7.87; in the test with ASPC-1 (hydrochloride) it was 7.47; in the test on K562 (hydrochloride) it was 7.67; in the test on Ec9706 (hydrochloride), 7.80; in the test with HepG-2 (hydrochloride), 7.55. Besides, the pIC50 was 7.73 in the test with B16F1 (hydrochloride), 7.81 in the test with SKOV3 (hydrochloride) and 7.72 with HT-29 (hydrochloride).
On to `CC1=C2CC[C@@](C)(O)[C@@H]2[C@H]2OC(=O)[C@@H](CN(C)C)[C@@H]2CC1` [Compound II, 11βH,13-Dihydro, 13-dimethylaminomicheliolide], for which the pIC50 with A549 was 8.14; in the test on SW579 (SW579, 18 h), 7.76; in the test with CNE-1, 7.95; in the test with CNE-2 (Homo sapiens, CNE-2, 18 h), 7.78; in the test with SGC7901 (Homo sapiens, SGC-7901, 18 h) it was 7.84; in the test with MCF-7 it was 8.34. Further, the pIC50 with HeLa was 8.03; in the test on A498 (Homo sapiens, A498, 18 h), 7.91; in the test with SW1116, 7.94; in the test with T24 (Homo sapiens, T-24, 18 h), 7.85; in the test with HL-60, 8.62; in the test on PC-3 it was 8.06. The pIC50 in the test on GL15 is 7.90; with SW620, 8.24; with ASPC-1 it was 8.41; with K562 it was 8.38; in the test with Ec9706 (Homo sapiens, EC9706, 18 h), 8.04; in the test with HepG-2, 8.35. Also, the pIC50 in the test on B16F1 was 8.47; with SKOV3 it was 8.23; with HT-29, 8.32.
Regarding `C=C1C(=O)O[C@H]2[C@H]1CC[C@]1(C)O[C@@]13CC[C@@](C)(O)[C@H]23` [Compound IV, 1,10-Epoxymicheliolide], the pIC50 in the test with A549 (Homo sapiens, A549, 18 h) is 8.24; with SW579 (SW579, 18 h) it was 7.91; in the test on CNE-1 (18 h) it was 8.17; in the test on CNE-2 (Homo sapiens, CNE-2, 18 h) it was 8.25; with SGC7901 (Homo sapiens, SGC-7901, 18 h), 7.87; in the test with MCF-7 (Homo sapiens, MCF7, 18 h), 8.05. Further, the pIC50 in the test with HeLa (Homo sapiens, 18 h) was 8.01; with A498 (Homo sapiens, A498, 18 h) it was 8.37; in the test with SW1116 (Homo sapiens, SW 1116, 18 h), 7.93; with T24 (Homo sapiens, T-24, 18 h) it was 8.10; in the test with HL-60 (Homo sapiens, HL-60, 18 h) it was 8.24; in the test on PC-3 (Homo sapiens, PC-3, 18 h), 7.76. For the same compound, the pIC50 in the test on GL15 (Neuroblastoma cell, 18 h) was 7.67; with SW620 (Homo sapiens, SW-620, 18 h), 8.42; in the test with ASPC-1 (Homo sapiens, ASPC1, 18 h), 7.58; in the test on K562 (Homo sapiens, K562, 18 h), 8.01; in the test on Ec9706 (Homo sapiens, EC9706, 18 h), 8.18; in the test on HepG-2 (Homo sapiens, HepG2, 18 h), 8.13. Besides, the pIC50 in the test with B16F1 (Mus musculus, B16-F1, 18 h) is 8.28; with SKOV3 (Homo sapiens, SK-OV-3, 18 h), 7.98; in the test with HT-29 (Homo sapiens, HT-29, 18 h), 8.01.
